# Test results reported in ChEMBL document CHEMBL5390315, “Targeted Protein Degradation of Histone Deacetylases by Hydrophobically Tagged Inhibitors” (ACS Med Chem Lett, 2023).
# pIC50: −log10 of the molar value. Activity calls are given as the source filed them. The rule behind the calls is not given here.
# Key:
# Histone deacetylase 2 [1] = target: T1, Histone deacetylase 2 (Homo sapiens, UniProt Q92769)
# Description: Inhibition of C-terminal flag tagged human recombinant full length HDAC2 (1 to 488 residues) using Z- Lys(Ac)-AMC as fluorogenic substrate incubated for 90 mins followed by trypsin addition and measured after 30 min by microplate reader analysis
# [2] = target: T2, Protein deacetylase HDAC6 (Homo sapiens) (UniProt Q9UBN7); test: Induction of HDAC6 degradation in human MM1.S cells at 20 uM incubated for 24 hrs by immunoblot analysis; assay type: cell-based
# T2 sequence (whole entry): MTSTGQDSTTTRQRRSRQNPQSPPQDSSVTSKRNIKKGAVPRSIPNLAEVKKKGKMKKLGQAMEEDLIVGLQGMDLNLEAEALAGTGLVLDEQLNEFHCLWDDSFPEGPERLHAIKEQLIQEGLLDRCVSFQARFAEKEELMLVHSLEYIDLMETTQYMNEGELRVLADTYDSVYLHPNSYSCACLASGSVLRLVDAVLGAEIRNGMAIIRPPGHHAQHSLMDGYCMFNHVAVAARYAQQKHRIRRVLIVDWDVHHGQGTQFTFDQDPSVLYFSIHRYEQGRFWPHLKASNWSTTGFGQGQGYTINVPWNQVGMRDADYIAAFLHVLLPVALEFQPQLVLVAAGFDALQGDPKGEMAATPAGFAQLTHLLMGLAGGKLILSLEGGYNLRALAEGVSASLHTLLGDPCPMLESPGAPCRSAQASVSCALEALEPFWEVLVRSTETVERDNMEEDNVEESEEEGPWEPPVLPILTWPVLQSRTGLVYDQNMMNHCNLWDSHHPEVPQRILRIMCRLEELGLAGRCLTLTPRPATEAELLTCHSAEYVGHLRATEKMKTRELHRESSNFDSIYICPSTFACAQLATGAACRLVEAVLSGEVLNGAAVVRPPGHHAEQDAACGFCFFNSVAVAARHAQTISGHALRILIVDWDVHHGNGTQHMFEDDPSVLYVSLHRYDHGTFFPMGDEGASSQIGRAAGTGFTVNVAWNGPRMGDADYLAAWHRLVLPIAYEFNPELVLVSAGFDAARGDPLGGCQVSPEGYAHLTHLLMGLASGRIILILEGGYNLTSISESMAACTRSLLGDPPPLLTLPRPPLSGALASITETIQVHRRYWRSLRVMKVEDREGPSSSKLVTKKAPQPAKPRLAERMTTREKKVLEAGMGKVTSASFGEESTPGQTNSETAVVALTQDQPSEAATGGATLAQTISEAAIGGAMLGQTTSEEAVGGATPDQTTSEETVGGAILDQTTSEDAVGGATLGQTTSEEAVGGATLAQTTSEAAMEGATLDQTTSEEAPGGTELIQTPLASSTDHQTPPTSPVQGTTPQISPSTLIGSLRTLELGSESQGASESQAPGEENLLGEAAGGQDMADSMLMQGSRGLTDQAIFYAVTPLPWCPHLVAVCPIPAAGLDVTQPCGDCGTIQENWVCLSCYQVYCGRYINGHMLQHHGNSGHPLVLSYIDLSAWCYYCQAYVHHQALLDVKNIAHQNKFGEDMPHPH
# MM1.S [3] = test: cells; assay type: functional, cell-based; conditions: Homo sapiens, 72 h
# Description: Antiproliferative activity against human MM.1S cells assessed as inhibition of cell growth incubated for 72 hrs by microplate photometer analysis
# MM1.S [4] = test: Induction of apoptosis in human MM1.S cells assessed as late apoptosis at 20 uM incubated for 48 hrs by Annexin V-FITC/PI staining based flow cytometry; assay type: functional, cell-based
# [5] = target: Histone deacetylase 4 (Homo sapiens) (UniProt P56524); test: Inhibition of N-terminal GST/C-terminal His-tagged human recombinant HDAC4 (627 to 1084 residues) expressed in baculovirus expression system using Boc-Lys(Tfa)-AMC as fluorogenic substrate at 10 uM incubated for 90 min followed by trypsin addition and measured after 30 min by microplate reader analysis; conditions: time 120.0 min
# Histone deacetylase 1 [6] = target: T3, Histone deacetylase 1 (Homo sapiens, UniProt Q13547); test: Induction of HDAC1 degradation in human MM1.S cells incubated for 24 hrs by immunoblot analysis; assay type: cell-based
# MM1.S [7] = test: Induction of apoptosis in human MM1.S cells assessed as early apoptosis at 20 uM incubated for 48 hrs by Annexin V-FITC/PI staining based flow cytometry; assay type: functional, cell-based
# [8] = target: Histone deacetylase 4 (Homo sapiens) (UniProt P56524); test: Induction of HDAC4 degradation in human MM1.S cells at 20 uM incubated for 24 hrs by immunoblot analysis; assay type: cell-based
# Histone deacetylase 1 [9] = target: T3, Histone deacetylase 1; test: Induction of HDAC1 degradation in human MM1.S cells at 20 uM incubated for 24 hrs by immunoblot analysis; assay type: cell-based
# Histone deacetylase 1 [10] = target: T3, Histone deacetylase 1; test: Inhibition of C-terminal 6His tagged human recombinant full length HDAC1 (1 to 482 residues) using Z- Lys(Ac)-AMC as fluorogenic substrate incubated for 90 mins followed by trypsin addition and measured after 30 min by microplate reader analysis
# Histone deacetylase = test: Inhibition of human recombinant HDAC in human MM.1S cells using Boc-Lys(Epsilon-Ac)-AMC as substrate preincubated for 18 hrs followed by substrate addition and measured after 3 hrs by microplate reader analysis; assay type: cell-based; conditions: mm1.s
# [11] = target: T4, Protein deacetylase HDAC6 (Homo sapiens, UniProt Q9UBN7); test: Inhibition of C-terminal GST tagged human recombinant full length HDAC6 (1 to 1215 residues) using Z- Lys(Ac)-AMC as fluorogenic substrate incubated for 90 mins followed by trypsin addition and measured after 30 min by microplate reader analysis
# T4 sequence (Q9UBN7 whole entry): T2 sequence (whole entry)
# Histone deacetylase 2 [12] = target: T1, Histone deacetylase 2; test: Induction of HDAC2 degradation in human MM1.S cells at 20 uM incubated for 24 hrs by immunoblot analysis; assay type: cell-based
# MM1.S [13] = test: Antiproliferative activity against human MM.1S cells assessed as inhibition of cell growth at upto 100 uM incubated for 72 hrs by microplate photometer analysis; assay type: functional, cell-based
# Histone deacetylase 1 [14] = target: T3, Histone deacetylase 1; test: Induction of HDAC1 degradation in human MM1.S cells at 20 uM incubated for 24 hrs in the presence of MG132 by immunoblot analysis; assay type: cell-based
# Sequence of Histone deacetylase 4 (Homo sapiens) (P56524 whole entry, the tested form may be a part): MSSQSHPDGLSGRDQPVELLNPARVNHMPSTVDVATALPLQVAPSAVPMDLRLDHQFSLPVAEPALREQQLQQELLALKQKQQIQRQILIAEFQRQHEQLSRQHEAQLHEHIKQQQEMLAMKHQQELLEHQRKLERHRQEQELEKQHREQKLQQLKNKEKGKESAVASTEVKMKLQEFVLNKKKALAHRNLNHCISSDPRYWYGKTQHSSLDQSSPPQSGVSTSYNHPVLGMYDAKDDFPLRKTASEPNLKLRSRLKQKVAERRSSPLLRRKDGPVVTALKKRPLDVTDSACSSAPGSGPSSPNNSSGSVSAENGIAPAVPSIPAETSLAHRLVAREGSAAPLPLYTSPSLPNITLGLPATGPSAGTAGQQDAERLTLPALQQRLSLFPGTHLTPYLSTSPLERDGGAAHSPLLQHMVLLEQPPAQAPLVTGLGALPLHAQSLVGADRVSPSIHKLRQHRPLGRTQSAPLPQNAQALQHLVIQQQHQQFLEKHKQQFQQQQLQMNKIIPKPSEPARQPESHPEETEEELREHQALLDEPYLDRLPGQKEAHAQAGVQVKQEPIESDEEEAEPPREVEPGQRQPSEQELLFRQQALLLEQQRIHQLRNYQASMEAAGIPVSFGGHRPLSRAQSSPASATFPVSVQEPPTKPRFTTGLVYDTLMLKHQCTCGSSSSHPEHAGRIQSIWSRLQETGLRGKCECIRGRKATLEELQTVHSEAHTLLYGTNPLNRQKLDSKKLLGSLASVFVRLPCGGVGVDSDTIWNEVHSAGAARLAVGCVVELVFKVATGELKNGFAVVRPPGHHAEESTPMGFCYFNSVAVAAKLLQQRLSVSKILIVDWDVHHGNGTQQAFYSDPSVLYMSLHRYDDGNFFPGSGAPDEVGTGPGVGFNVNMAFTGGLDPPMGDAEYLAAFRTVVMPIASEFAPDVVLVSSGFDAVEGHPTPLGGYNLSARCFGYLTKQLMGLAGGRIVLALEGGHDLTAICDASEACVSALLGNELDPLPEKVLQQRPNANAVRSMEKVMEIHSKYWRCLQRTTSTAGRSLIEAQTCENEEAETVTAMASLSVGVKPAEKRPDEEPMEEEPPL
# T3 sequence (Q13547 whole entry): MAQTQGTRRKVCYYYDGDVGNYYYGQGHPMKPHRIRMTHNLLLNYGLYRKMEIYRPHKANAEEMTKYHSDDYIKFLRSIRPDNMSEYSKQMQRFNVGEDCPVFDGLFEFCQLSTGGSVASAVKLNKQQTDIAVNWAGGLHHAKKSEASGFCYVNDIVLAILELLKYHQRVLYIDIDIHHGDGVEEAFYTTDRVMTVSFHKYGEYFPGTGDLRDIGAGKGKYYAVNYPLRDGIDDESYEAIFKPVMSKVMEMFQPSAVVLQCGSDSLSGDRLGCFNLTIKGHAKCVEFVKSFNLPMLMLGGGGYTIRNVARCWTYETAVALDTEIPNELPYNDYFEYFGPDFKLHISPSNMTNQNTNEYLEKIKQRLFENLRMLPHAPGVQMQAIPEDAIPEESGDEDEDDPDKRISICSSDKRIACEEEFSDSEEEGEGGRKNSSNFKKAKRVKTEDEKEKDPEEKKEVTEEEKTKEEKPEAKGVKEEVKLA
# T1 sequence (Q92769 whole entry): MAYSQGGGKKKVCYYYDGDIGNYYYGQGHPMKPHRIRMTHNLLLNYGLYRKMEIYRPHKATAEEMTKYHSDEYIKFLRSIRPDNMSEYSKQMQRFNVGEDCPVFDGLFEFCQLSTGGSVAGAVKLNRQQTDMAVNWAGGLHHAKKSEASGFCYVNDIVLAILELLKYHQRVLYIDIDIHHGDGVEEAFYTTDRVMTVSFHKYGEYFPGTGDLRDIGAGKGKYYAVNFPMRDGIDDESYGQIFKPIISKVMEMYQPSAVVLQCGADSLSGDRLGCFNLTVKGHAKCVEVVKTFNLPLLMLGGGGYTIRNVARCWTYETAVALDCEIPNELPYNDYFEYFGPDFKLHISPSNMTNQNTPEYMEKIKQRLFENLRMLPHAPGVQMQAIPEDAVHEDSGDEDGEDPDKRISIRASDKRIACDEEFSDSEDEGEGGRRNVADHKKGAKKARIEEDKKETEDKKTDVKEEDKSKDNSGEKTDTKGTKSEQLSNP
compound,measurement,setting,value
O=C(CCCCCCNC(=O)c1ccc(NC(=O)CNC(=O)CC23C[C@H]4C[C@@H](C2)C[C@@H](C3)C4)cc1)NO,pIC50,Histone deacetylase 2 [1],6.61
same,Activity,[2],inactive
same,pIC50,MM1.S [3],5.14
same,Activity,MM1.S [4],Active
same,inhibition,[5],inactive
same,Emax,Histone deacetylase 1 [6],47%
same,Activity,MM1.S [7],Active
same,Activity,[8],inactive
same,Activity,Histone deacetylase 1 [9],Active
same,pIC50,Histone deacetylase 1 [10],6.88
same,IC50,Histone deacetylase,0.58 µM
same,pIC50,[11],8.23
same,Activity,Histone deacetylase 2 [12],Active
O=C(CCCCCCNC(=O)c1ccc(NC(=O)CCCNC(=O)CC2c3ccccc3-c3ccccc32)cc1)NO,pIC50,MM1.S [3],4.17
O=C(CCCCCCNC(=O)c1ccc(NC(=O)CNC(=O)CC2c3ccccc3-c3ccccc32)cc1)NO,pIC50,Histone deacetylase 2 [1],6.80
same,Activity,[2],inactive
same,pIC50,MM1.S [3],4.94
same,Activity,MM1.S [4],Active
same,inhibition,[5],inactive
same,Emax,Histone deacetylase 1 [6],47%
same,Activity,MM1.S [7],Active
same,Activity,[8],inactive
same,Activity,Histone deacetylase 1 [9],Active
same,pIC50,Histone deacetylase 1 [10],7.06
same,IC50,Histone deacetylase,0.54 µM
same,pIC50,[11],8.48
O=C(CCCCCCNC(=O)c1ccc(NC(=O)CCCCCNC(=O)CC2c3ccccc3-c3ccccc32)cc1)NO,Activity,MM1.S [13],inactive
O=C(CC12C[C@H]3C[C@@H](C1)C[C@@H](C2)C3)NCCOCCOCCCCCCn1cc(COc2ccc(C(=O)NCc3ccc(C(=O)NO)cc3)cc2)nn1,Activity,MM1.S [13],inactive
O=C(CCCCCCNC(=O)c1ccc(NC(=O)CCCNC(=O)CC23C[C@H]4C[C@@H](C2)C[C@@H](C3)C4)cc1)NO,pIC50,MM1.S [3],4.62
O=C(CCCCCCNC(=O)c1ccc(NC(=O)CC23C[C@H]4C[C@@H](C2)C[C@@H](C3)C4)cc1)NO,pIC50,Histone deacetylase 2 [1],6.53
same,Activity,[2],inactive
same,pIC50,MM1.S [3],5.40
same,Activity,MM1.S [4],Active
same,inhibition,[5],inactive
same,Emax,Histone deacetylase 1 [6],47%
same,Activity,MM1.S [7],Active
same,Activity,[8],inactive
same,Activity,Histone deacetylase 1 [9],Active
same,pIC50,Histone deacetylase 1 [10],6.72
same,IC50,Histone deacetylase,1.12 µM
same,pIC50,[11],8.28
same,Activity,Histone deacetylase 2 [12],Active
O=C(CCCCCCNC(=O)c1ccc(NC(=O)CCCCCNC(=O)CC23C[C@H]4C[C@@H](C2)C[C@@H](C3)C4)cc1)NO,pIC50,MM1.S [3],4.64
O=C(CCCCCCNC(=O)c1ccc(-c2cn(CCCCCCOCCOCCNC(=O)CC34C[C@H]5C[C@@H](C3)C[C@@H](C4)C5)nn2)cc1)NO,pIC50,Histone deacetylase 2 [1],6.36
same,Activity,[2],inactive
same,pIC50,MM1.S [3],4.99
same,Activity,MM1.S [4],Active
same,inhibition,[5],inactive
same,Emax,Histone deacetylase 1 [6],47%
same,Activity,MM1.S [7],Active
same,Activity,[8],inactive
same,Activity,Histone deacetylase 1 [9],Active
same,pIC50,Histone deacetylase 1 [10],6.46
same,Activity,Histone deacetylase 1 [14],inactive
same,IC50,Histone deacetylase,1.17 µM
same,pIC50,[11],7.75
O=C(CCCCCCNC(=O)c1ccc(NC(=O)CC2c3ccccc3-c3ccccc32)cc1)NO,Activity,MM1.S [13],inactive
O=C(CCCCCCNC(=O)c1ccc(OCc2cn(CCCCCCOCCOCCNC(=O)CC34C[C@H]5C[C@@H](C3)C[C@@H](C4)C5)nn2)cc1)NO,pIC50,MM1.S [3],4.31
O=C(CC12C[C@H]3C[C@@H](C1)C[C@@H](C2)C3)NCCOCCOCCCCCCn1cc(-c2ccc(C(=O)NCc3ccc(C(=O)NO)cc3)cc2)nn1,Activity,MM1.S [13],inactive
